Our source for the melting point values is a melting point compilation (Tetko et al.; mined from patent text by program, amines drawn as free bases though some values may be those of a salt).

Take `CCn1c2ccccc2c2cc(C=Cc3ccc([N+](=O)[O-])cc3)ccc21`: the melting point was 168 °C. Regarding `COc1cccc(S(=O)(=O)n2c(COC(C)(C)C(=O)O)cc3nc(Cl)ccc32)c1`, the melting point worked out at 130 °C.

On to `CC(NC(=S)N1CCc2c([nH]c3ccccc23)C1c1ccc2c(c1)OCO2)c1ccccc1` (centres undefined), for which the melting point lay within 117 to 121 °C.

The compound `COc1ccc(CCNC(=O)C(F)(F)F)c2ccc(=O)[nH]c12` gave a melting point of 181 to 184 °C. Under `CCOC(=O)C(C)Oc1ccc(C(=O)Nc2ccccc2Sc2ccccc2-c2nnn[nH]2)cc1` (centres undefined) stands 157 to 158 °C; under `O=C1CCc2cc(Cl)c(Cl)cc21`, 155 °C. Consider `Nc1cccc(Oc2ccc(-c3ccc(Oc4cccc(N)c4)cc3)cc2)c1`, for which the melting point lay within 144 to 146 °C. Under `CC(=O)OC1CSC(Sc2cc(C(F)(F)F)cc(C(F)(F)F)c2)C(OC(C)=O)C1OC(C)=O` (centres undefined) stands 201 °C. Under `COc1cc(N)c(Cl)cc1C(=O)N[C@H]1CCN(CCNc2nccnc2C)C[C@H]1OC` (relative stereo) stands 170 °C; under `CCCCc1nc2c(N)nc3cccnc3c2n1CCNC(C)=O`, 228 to 230 °C.

In the case of `CC(C)c1csc(C(C)C)c1NC(=S)NC(C)(C)C`, the melting point is 168 to 169 °C. The figure for `CCCCCS(=O)(=O)NC(=O)OCc1cc(OC(C)C)nn1Cc1ccc(Cl)cc1Cl` is 126 to 128 °C; for `COc1nc(Cl)nc(Cl)c1C#N` it is 117 °C; for `CN(C)c1nc(C(F)(F)F)cc(=O)o1` it is 79 °C. The figure for `COC(=O)C(=CN(C)C)N(C)c1cc(-c2ccc(Cl)cc2)on1` is 190 °C; for `CCN1CCN2C(=O)c3ccccc3C12c1ccc(Cl)cc1` (centres undefined) it is 114 °C. In turn, `COc1ccc(C2=NN(C3CCCC3)C(=O)[C@H]3CC=CC[C@@H]23)cc1OC` (relative stereo) showed a melting point of 131 to 133 °C. The figure for `CCOC(=O)C1=C(C)NC(=S)N(C(=O)c2ccccc2)C1c1cccc([N+](=O)[O-])c1` (centres undefined) is 173 to 175 °C.

In turn, `N#CC(C#N)(COc1ccccc1Cl)NC(=O)c1ccc(OC(F)(F)F)cc1` returned a melting point of 154 to 155 °C. Compound `O=C(O)Cc1ccc(NC(=O)Nc2ccccc2C(F)(F)F)cc1` yielded a melting point of 224 to 225 °C. `CN1C(=O)N(c2nnc(C(C)(C)C)s2)C(=O)C1(C)OC(N)=O` (centres undefined) came in with a melting point of 165 °C.

In the case of `COC(=O)Nc1cc(C(C)(C)C)on1`, the melting point fell in the range of 55.5 to 58.5 °C. Under `COc1ccc(-c2ccccc2)c2sc(N)nc12` stands 207 to 208 °C.

Compound `CCn1ncc(C(=O)c2ccc(S(C)(=O)=O)c(Cl)c2Cl)c1O` displayed a melting point of 198 to 200 °C. The figure for `CCN(CC)c1ccc(C2(c3c(C)n(CC)c4ccccc34)OC(=O)c3ccccc32)c(OCc2ccccc2)c1` (centres undefined) is 138 °C; for `CC1(C)CC2(CC(C)(C)C1Cc1ccccc1)C(=O)C(Cc1ccccc1)C(=O)C2Cc1ccccc1` (centres undefined) it is 135 to 136 °C; for `C=C(C)COc1ccc(C(=O)C=Cc2cccnc2)c(O)c1` it is 164 to 166 °C. Under `CC(=O)CCNC(=O)n1cc(F)c(=O)[nH]c1=O` stands 158 to 159 °C; under `Cc1cccc(Nc2cc(Nc3cccc(O)c3)ncn2)c1`, 188 to 189 °C; under `Cc1[nH]c2ccccc2c1CCN1CCN(N)CC1`, 118 to 120 °C.

With `Cc1nc(N2CCc3ccccc3CC2)c(C#N)c(=O)n1NCC(F)(F)F`, the melting point fell in the range of 144 to 146 °C. `O=C(c1cccs1)c1cnn2c(-c3cccc(F)c3)ccnc12` came in with a melting point of 235 to 237 °C. Under `Cc1cc(C)cc(Sc2c(C(C)C)c(=O)[nH]c(=O)n2CCC2C=CCC2)c1` (centres undefined) stands 138 to 140 °C; under `Cn1cc(C2=C(c3cn(CCCOS(C)(=O)=O)c4ccccc34)C(=O)NC2=O)c2ccccc21`, 202 to 204 °C.
